Experimental data: US7223759B2, “Antibacterial 3,5-diaminopiperidine-substituted aromatic and heteroaromatic compounds” (Anadys Pharmaceuticals, Inc., priority 2003, dated 2007)

Test system: Escherichia coli (ATCC25922) or Staphylococcus aureus (ATCC25923)
Test: Antibacterial MIC, microdilution method in Mueller-Hinton medium
Assay type: cell-based
Conditions: Escherichia coli, 18 h, MIC in E. coli or S. aureus; two-fold serial dilutions 64 to 0.5 μg/ml in duplicate; 18 hours of incubation at 35° C.; read-out: Potency (MIC)
Experimental: The antibacterial activity of the Formula I compounds was evaluated against standard bacterial strains by determining the minimal inhibitory concentration (MIC) to block growth. Each drug was assayed by the microdilution method in Mueller-Hinton medium, as recommended by the National Committee for Clinical Laboratory Standards. Approved Standard M7-A5: Methods for Dilution Antimicrobial Susceptibility Tests for Bacteria That Grow Aerobically 5th Ed. (National Committee for Clinical Laboratory Standards, Wayne, Pa., 2000). The tested bacterial strains included Escherichia coli (American Type Collection ATCC25922), Staphylococcus aureus (ATCC25923), and Pseudomonas aeruginosa (ATCC27853). Two-fold serial dilutions of each compound ranging from 64 to 0.5 μg/ml were tested in duplicate. The MIC was determined as the lowest concentration of each compound that prevented bacterial growth after 18 hours of incubation at 35° C. […] The mass of each compound in the Table was confirmed by LC-MS.

MIC | Compound
> 64 µg/mL | Cl.N[C@@H]1C[C@H](N)CN(c2nc(Nc3ccccc3)nc(N3C[C@H](N)C[C@H](N)C3)n2)C1 [N-phenyl-44,6-Bis-((3R,5S)-3,5-diamino-piperidin-1-yl)-[1,3,5]triazine-2-amine]
> 64 µg/mL | N[C@@H]1C[C@H](N)CN(c2nc(Nc3ccc(Br)cc3)nc(N3C[C@H](N)C[C@H](N)C3)n2)C1 [N-(4-bromo-phenyl)-4,6-Bis-((3R,5S)-3,5-diamino-piperidin-1-yl)-[1,3,5]triazine-2-amine]
> 64 µg/mL | Cl.N[C@@H]1C[C@H](N)CN(c2nc(Nc3ccccc3F)nc(N3C[C@H](N)C[C@H](N)C3)n2)C1 [N-(2-fluoro-phenyl)-4,6-Bis-((3R,5S)-3,5-diamino-piperidin-1-yl)-[1,3,5]triazine-2-amine]
< 64 µg/mL | CC12CC[C@](C(=O)Nc3ccc(Nc4nc(N5C[C@H](N)C[C@H](N)C5)nc(N5C[C@H](N)C[C@H](N)C5)n4)cc3O)(OC1=O)C2(C)C [(S)-4,7,7-Trimethyl-3-oxo-2-oxa-bicyclo[2.2.1]heptane-1-carboxylic acid {4-[4,6-bis-((3R,5S)-3,5-diamino-piperidin-1-yl)-[1,3,5]triazin-2-ylamino]-2-hydroxy-phenyl}-amide]
> 64 µg/mL | N[C@@H]1C[C@H](N)CN(c2nc(Nc3ccccc3O)nc(N3C[C@H](N)C[C@H](N)C3)n2)C1 [N-(2-hydroxy-phenyl)-4,6-Bis-((3R,5S)-3,5-diamino-piperidin-1-yl)-[1,3,5]triazine-2-amine]
< 64 µg/mL | N[C@@H]1C[C@H](N)CN(c2nc(NCCN3CCNC3=O)nc(Nc3ccc(NC(=O)c4ccc(Cl)cc4)c(O)c3)n2)C1 [4-Chloro-N-{4-[4-((3S,5R)-3,5-diamino-piperidin-1-yl)-6-[2-(2-oxo-imidazolidin-1-yl)-ethylamino]-[1,3,5]triazin-2-ylamino}-2-hydroxy-phenyl)-benzamide]
< 16 µg/mL | Cl.O=C(Nc1ccc(Nc2nc(N3CCCCC3)nc(N3CCCCC3)n2)cc1Cl)c1ccc(F)c(F)c1O [N-[3-chloro-4-(3,4-difluoro-2-hydroxy-benzoylamino)-pheny]-4,6-Bis-((3R,5S)-3,5-diamino-piperidin-1-yl)-[1,3,5]triazine-2-ammine]
< 64 µg/mL | Cc1cc(Nc2nc(N3C[C@H](N)C[C@H](N)C3)nc(N3C[C@H](N)C[C@H](N)C3)n2)ccc1NC(=O)c1cc2cccc(O)c2cc1O [N-{4-[(3,5-dihydroxy-naphthalene-2-carbonyl)-amino]-3-methyl-phenyl]-4,6-Bis-((3R,5S)-3,5-diamino-piperidin-1-yl)-[1,3,5]triazine-2-amine]
> 64 µg/mL | N[C@@H]1C[C@H](N)CN(c2nc(Nc3ccc(S(=O)(=O)Nc4ccc5cn[nH]c5c4)cc3)nc(N3CCC(N4CCCC4)CC3)n2)C1 [4-[4-((3S,5R)-3,5-Diamino-piperidin-1-yl)-6-(4-pyrrolidin-1-yl-piperidin-1-yl)-[1,3,5]triazin-2-ylamino]-N-(1H-indazol-6-yl)-benzenesulfonamide]
< 16 µg/mL | Cl.O=C(CC(=O)c1ccc(Nc2nc(N3CCCCC3)nc(N3CCCCC3)n2)cc1)Nc1ccc(-c2ccccc2)cc1 [N-{4-[2-(biphenyl-44-ylcarbamoyl)-acetyl]-phenyl}-44,6-Bis-((3R,5S)-3,5-diamino-piperidin-1-yl)-[1,3,5]triazine-2-amine]
< 64 µg/mL | CSc1cccc(Nc2nc(N3C[C@H](N)C[C@H](N)C3)nc(N3C[C@H](N)C[C@H](N)C3)n2)c1.Cl [N-(3-methyylsulfanyl-phenyl)-4,6-Bis-((3R,5S)-3,5-diamino-piperidin-1-yl)-[1,3,5]triazine-2-amine]
> 64 µg/mL | Cl.NC(=O)c1ccc(Nc2nc(N3C[C@H](N)C[C@H](N)C3)nc(N3C[C@H](N)C[C@H](N)C3)n2)nc1 [N-(5-carbamoyl-pyridin-2-yl)-4,6-Bis-((3R,5S)-3,5-diamino-piperidin-1-yl)-[1,3,5]triazine-2-amine]
> 64 µg/mL | COC(=O)c1ccc(Nc2nc(N3CCCCC3)nc(N3CCCCC3)n2)c(O)c1 [44-[4,6-Bis-((3R,5S)-3,5-diamino-piperidin-1-yl)-[1,3,5]triazin-2-ylamino]-3-hydroxy-benzoic acidmethyl ester]

Same assay, conditions: Escherichia coli, 18 h, read-out: Potency (MIC)

Compound | MIC
N[C@@H]1C[C@H](N)CN(c2nc(Nc3ccc(NC(=O)c4ccc(F)cc4O)cc3)nc(N3C[C@H](N)C[C@H](N)C3)n2)C1 [N-[4-(4-fluoro-2-hydroxy-benzoylamino)-phenyl]-4,6-Bis-((3R,5S)-3,5-diamino-piperidin-1-yl)-[1,3,5]triazine-2-amine] | < 16 µg/mL
COc1ccc(C(=O)Nc2ccc(Nc3nc(N4C[C@H](N)C[C@H](N)C4)nc(N4C[C@H](N)C[C@H](N)C4)n3)cc2)c(O)c1 [N-[4-(2-hydroxy-4-methoxy-benzoylamino)-phenyl]-4,6-Bis-((3R,5S)-3,5-diamino-piperidin-1-yl)-[1,3,5]triazine-2-amine] | > 64 µg/mL
N[C@@H]1C[C@H](N)CN(c2nc(Nc3ccc4c(c3)-c3ccccc3C4=O)nc(N3CCC[C@@H](O)C3)n2)C1 [3-[4-((3S,5R)-3,5-Diamino-piperidin-1-yl)-6-((R)-3-hydroxy-piperidin-1-yl)-[1,3,5]triazin-2-ylamino]-fluoren-9-one] | < 64 µg/mL
CN(C)c1ccc(C(=O)Nc2ccc(Nc3nc(N4C[C@H](N)C[C@H](N)C4)nc(N4C[C@H](N)C[C@H](N)C4)n3)cc2)c(O)c1 [N-[4-(4-dimethylamino-2-hydroxy-benzoylamino)-phenyl]-4,6-Bis-((3R,5S)-3,5-diamino-piperidin-1-yl)-[1,3,5]triazine-2-amine] | < 16 µg/mL
N[C@@H]1C[C@H](N)CN(c2nc(Nc3ccc(NC(=O)c4ccc(Cl)cc4)c(O)c3)nc(NC3CCCNC3)n2)C1 (stereo partly drawn) [4-Chloro-N-{4-[4-((3S,5R)-3,5-diamino-piperidin-1-yl)-6-(piperidin-3-ylamino)-[1,3,5]triazin-2-ylamino]-2-hydroxy-phenyl}-benzamide] | < 16 µg/mL
COc1ccc(C(=O)Nc2ccc(Nc3nc(N4C[C@H](N)C[C@H](N)C4)nc(N4C[C@H](N)C[C@H](N)C4)n3)cc2O)cc1 [N-[3-hydroxy-4-(4-methoxy-benzoylamino)-phenyl]-4,6-Bis-((3R,5S)-3,5-diamino-piperidin-1-yl)-[1,3,5]triazine-2-amine] | < 16 µg/mL
N[C@@H]1C[C@H](N)CN(c2nc(Nc3ccc(NC(=O)c4ccc(Cl)cc4)c(O)c3)nc(NC3CCNCC3)n2)C1 | < 16 µg/mL
NCCNc1nc(Nc2ccc3c(c2)-c2ccccc2C3=O)nc(N2C[C@H](N)C[C@H](N)C2)n1 [3-[4-(2-Amino-ethylamino)-6-((3R,5S)-3,5-diamino-piperidin-1-yl)-[1,3,5]triazin-2-ylamino]-fluoren-9-one] | > 64 µg/mL
N[C@@H]1C[C@H](N)CN(c2nc(Nc3ccc(C(=O)Nc4ccc(F)c(F)c4)c(O)c3)nc(N3C[C@H](N)C[C@H](N)C3)n2)C1 [N-[4-(3,4-difluoro-phenylcarbamoyl)-3-hydroxy-phenyl]-4,6-Bis-((3R,5S)-3,5-diamino-piperidin-1-yl)-[1,3,5]triazine-2-amine] | < 16 µg/mL
CCCCCCCCCC(=O)Nc1ccc(Nc2nc(N3C[C@H](N)C[C@H](N)C3)nc(N3C[C@H](N)C[C@H](N)C3)n2)cc1O [N-(4-decanoylamino-3-hydroxy-phenyl)-4,6-Bis-((3R,5S)-3,5-diamino-piperidin-1-yl)-[1,3,5]triazine-2-amine] | < 16 µg/mL
N[C@@H]1C[C@H](N)CN(c2ccc(NC(=O)c3ccc4ccccc4c3O)cc2)C1 [1-Hydroxy-naphthalene-2-carboxylicacid [4-((3S,5R)-3,5-diamino-piperidin-1-yl)-phenyl]-amide] | > 64 µg/mL
N[C@@H]1C[C@H](N)CN(c2nc(Nc3ccc(C(=O)Nc4ccc(Cl)c(Cl)c4)c(O)c3)nc(N3C[C@H](N)C[C@H](N)C3)n2)C1 [N-[4-(3,4-dichloro-phenylcarbamoyl)-3-hydroxy-phenyl]-4,6-Bis-((3R,5S)-3,5-diamino-piperidin-1-yl)-[1,3,5]triazine-2-amine] | < 16 µg/mL
Cc1ccc(C(=O)Nc2ccc(Nc3nc(N4C[C@H](N)C[C@H](N)C4)nc(N4C[C@H](N)C[C@H](N)C4)n3)cc2C)c(O)c1 [N-[4-(2-hydroxy-4-methyl-benzoylamino)-3-methyl-phenyl]-4,6-Bis-((3R,5S)-3,5-diamino-piperidin-1-yl)-[1,3,5]triazine-2-amine] | < 64 µg/mL

Same assay, conditions: MIC in E. coli or S. aureus; two-fold serial dilutions 64 to 0.5 μg/ml in duplicate; 18 hours of incubation at 35° C.

Compound | Potency (MIC)
N-(4-phenylazo-phenyl)-4,6-Bis-((3R,5S)-3,5-0diamino-piperidin-1-yl)-[1,3,5]triazine-2-amine | ++ (++ means MIC<16 μg/ml in E. coli or S. aureus)
Cc1ccc(C(=O)Nc2ccc(Nc3nc(N4CCCCC4)nc(N4CCCC4)n3)cc2O)cc1.Cl [drawing 285, NM-{4-[4-((3R,5S)-3,5-Diamino-piperidin-1-yl)-6-((3R,4S)-3,4-diamino-pyrrolidin-1-yl)-[1,3,5]triazin-2-ylamino]-2-hydroxy-phenyl}-4-methyl-benzamide] | + (+ means MIC<64 μg/ml in E. coli or S. aureus)
N-[4-(cyclohexanecarbonyl-amino)-3-hydroxy-phenyl]-4,6-Bis-((3R,5S)-3,5-0diamino-piperidin-1-yl)-[1,3,5]triazine-2-amine | + (+ means MIC<64 μg/ml in E. coli or S. aureus)
